Consider 13 compounds from US20240228512A1, “ACYCLIC OXAZEPINE COMPOUNDS COMPRISING A 6-AZA MOIETY AND USES THEREOF” (Genentech, Inc., priority 2022, published 2024).

What is called IC50 is the concentration that gives 50% inhibition.

One test concerns SW620 cells. Nature of the test: SW620 3D proliferation assay (CellTiter-Glo). The class given is cell-based. The note with it: Homo sapiens, SW-620, 168 h, SW620, 3D culture, 7 days, read-out: SW620 CTG IC50. Here is the method: (§1) SW620 and HPAC 3D proliferation assays.
(§2) Compound potencies were assessed in proliferation assays conducted with SW620 and HPAC cell lines grown in 3D cultures. Cells were seeded into 96- or 384-well ultra-low attachment plates at 3000 or 1000 cells/well, respectively, in culture medium (RPMI-1640, 10% FBS, 2 mM L-glutamine). The plated cells were centrifuged briefly, allowed to rest for 30 minutes under ambient conditions, and cultured overnight at 37° C./5% CO2 to initiate the formation of spheroids. Compound dilutions were prepared across a range of concentrations in DMSO and added to the appropriate wells of the assay plates with a 333-fold dilution into the culture medium. The plates were further incubated for 7 days. The quantity of viable cells was assessed using CellTiter-Glo 3D Cell Viability Assay (Promega). The detection reagent penetrates the spheroids and lyses the cells. The released ATP that was detected with luciferase and a luciferase substrate to generate a luminescent readout. […] The data points were fit to a 4-parameter logistic equation to determine IC50 values.
In general terms: ATP-based viability assays read luminescence as a measure of living cells.

The subject of another test is H1975 cells. Nature of the test: H1975 CTG proliferation assay. The note with it: Homo sapiens, NCI-H1975, H1975, CTG. The format is cell-based.
For the next test, the system named is HPAC cells. Nature of the test: HPAC 3D proliferation assay (CellTiter-Glo). The format is cell-based. The conditions noted are these: Homo sapiens, 168 h, 3D culture, 7 days, read-out: HPAC CTG IC50. Here is the method:
as §1, §2

The subject of a further test is SW620 PERK. As to the kind of experiment: SW620 PERK assay. The class given is cell-based. The conditions noted are these: Homo sapiens, SW-620, SW620, PERK.
Test [1] deals with recombinant human KRAS wild type (SOS1-mediated nucleotide exchange) (Homo sapiens (Human), UniProt P01116). Nature of the test: KRAS biochemical assay, BODIPY-GDP exchange TR-FRET (WT-GDP HTRF). Here is the method: [Worded in the source for another variant; this variant is reported under the same test.] KRAS Biochemical Assay—BODIPY-GDP Exchange TR-FRET.
Chain of recombinant human KRAS wild type (SOS1-mediated nucleotide exchange) (P01116-2 other isoform, or with tags, fused parts or gaps): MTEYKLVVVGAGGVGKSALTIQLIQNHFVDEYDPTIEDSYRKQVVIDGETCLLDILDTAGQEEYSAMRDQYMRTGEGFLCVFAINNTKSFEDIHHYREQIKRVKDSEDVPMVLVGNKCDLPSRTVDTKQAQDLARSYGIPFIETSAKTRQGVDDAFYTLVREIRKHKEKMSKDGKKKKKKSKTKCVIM
Biochemical compound potencies were assessed by evaluating inhibition of SOS1-mediated nucleotide exchange in KRAS G12D. The SOS1-promoted exchange of fluorescently-labeled GDP (BOPIDY-GDP) was monitored by time-resolved fluorescence resonance energy transfer (TR-FRET). Compounds solubilized in DMSO were dispensed as concentration series into 384-well white assay plates. […] The reaction was initiated with the addition of 5 μL of 3 nM recombinant human SOS1 and 300 nM BODIPY-GDP in assay buffer. After a 60-minute incubation, the fluorescence was measured with excitation at 337 nm and emission at 490 and 520 nm. The TR-FRET ratio was determined as the fluorescence at 520 nm divided by the fluorescence at 490 nm multiplied by 10,000. […] The normalized TR-FRET results were plotted against compound concentration, and the data fit to a 4-parameter Hill equation to determine the IC50 values.
A general note: In TR-FRET formats the signal depends on donor and acceptor labels being close together.

The target in test [2] is recombinant human mutant KRas G12V (SOS1-mediated nucleotide exchange) (Homo sapiens (Human), UniProt P01116, G12V). Nature of the test: KRAS biochemical assay, BODIPY-GDP exchange TR-FRET (G12V-GDP HTRF).
Chain of recombinant human mutant KRas G12V (SOS1-mediated nucleotide exchange) (P01116-2 other isoform, or with tags, fused parts or gaps G12V): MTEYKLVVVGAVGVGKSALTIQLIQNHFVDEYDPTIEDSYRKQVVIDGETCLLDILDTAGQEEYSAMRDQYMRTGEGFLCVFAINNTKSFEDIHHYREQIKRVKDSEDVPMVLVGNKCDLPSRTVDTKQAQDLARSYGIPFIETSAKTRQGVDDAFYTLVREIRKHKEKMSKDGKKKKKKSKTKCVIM

Regarding `Cc1c(F)c(N)cc(-c2nc3c4c(nc(OC[C@@]56CCCN5C[C@H](F)C6)nc4c2F)N([C@H](C)c2cccnc2N)CCO3)c1CC(F)F` [Example 612, 3-((R)-1-(5-(5-amino-2-(2,2-difluoroethyl)-4-fluoro-3-methylphenyl)-4-fluoro-2-(((2R,7aS)-2-fluorotetrahydro-1H-pyrrolizin-7a(5H)-yl)methoxy)-8,9-dihydro-10H-7-oxa-1,3,6,10-tetraazacyclohepta[de]naphthalen-10-yl)ethyl)pyridin-2-amine], the IC50 with SW620 cells turned out to be 0.0284 µM; in the test on H1975 cells, 2.5 µM; in the test with HPAC cells it was 0.359 µM; in the test on SW620 PERK it was 0.0156 µM.
In the same order, the values of `C[C@H](c1cccnc1N)N1CCOc2nc(-c3c(C(F)(F)F)cc(F)c(N)c3F)c(F)c3nc(OC[C@@]45CCCN4C[C@H](F)C5)nc1c23` [Example 621, 3-((1R)-1-(5-(3-amino-2,4-difluoro-6-(trifluoromethyl)phenyl)-4-fluoro-2-(((2R,7aS)-2-fluorotetrahydro-1H-pyrrolizin-7a(5H)-yl)methoxy)-8,9-dihydro-10H-7-oxa-1,3,6,10-tetraazacyclohepta[de]naphthalen-10-yl)ethyl)pyridin-2-amine] are 0.0306 µM, 0.0977 µM, 0.339 µM and 0.0221 µM.
For `C[C@H](c1cccnc1N)N1CCOc2nc(-c3c(F)ccc4cnn(C)c34)c(F)c3nc(OC[C@@]45CCCN4C[C@H](F)C5)nc1c23` [Example 634, 3-((1R)-1-(4-fluoro-5-(6-fluoro-1-methyl-1H-indazol-7-yl)-2-(((2R,7aS)-2-fluorotetrahydro-1H-pyrrolizin-7a(5H)-yl)methoxy)-8,9-dihydro-10H-7-oxa-1,3,6,10-tetraazacyclohepta[de]naphthalen-10-yl)ethyl)pyridin-2-amine], the IC50 is 0.612 µM in the test on SW620 cells, 3.66 µM in the test on H1975 cells, 1.75 µM with HPAC cells and 0.0852 µM with SW620 PERK.
The corresponding values for `Cc1c(F)c(N)cc(-c2nc3c4c(nc(OC[C@@H]5CC(F)(F)CN5C)nc4c2F)N([C@H](C)c2cccnc2N)CCO3)c1C(F)(F)F` [Example 20, 3-((R)-1-(5-(5-amino-4-fluoro-3-methyl-2-(trifluoromethyl)phenyl)-2-(((S)-4,4-difluoro-1-methylpyrrolidin-2-yl)methoxy)-4-fluoro-8,9-dihydro-10H-7-oxa-1,3,6,10-tetraazacyclohepta[de]naphthalen-10-yl)ethyl)pyridin-2-amine] are 0.0303 µM, 0.421 µM, 0.484 µM and 0.00859 µM.
`Cc1c(F)c(N)cc(-c2nc3c4c(nc(OC[C@@H]5CC(F)(F)CN5C)nc4c2F)N([C@H](C)c2nccnc2N)CCO3)c1C(F)(F)F` [Example 8, 3-((R)-1-(5-(5-amino-4-fluoro-3-methyl-2-(trifluoromethyl)phenyl)-2-(((S)-4,4-difluoro-1-methylpyrrolidin-2-yl)methoxy)-4-fluoro-8,9-dihydro-10H-7-oxa-1,3,6,10-tetraazacyclohepta[de]naphthalen-10-yl)ethyl)pyrazin-2-amine]: the IC50 is 0.456 µM in the test with SW620 cells, 0.555 µM in the test with H1975 cells, 2 µM in the test with HPAC cells and 0.139 µM with SW620 PERK.
In the same order, the values of `Cc1c(F)c(N)cc(-c2nc3c4c(nc(OC[C@@]56CCCN5C[C@H](F)C6)nc4c2F)N([C@H](C)c2nccnc2N)CCO3)c1C(F)(F)F` [Example 9, 3-((R)-1-(5-(5-amino-4-fluoro-3-methyl-2-(trifluoromethyl)phenyl)-4-fluoro-2-(((2R,7aS)-2-fluorotetrahydro-1H-pyrrolizin-7a(5H)-yl)methoxy)-8,9-dihydro-10H-7-oxa-1,3,6,10-tetraazacyclohepta[de]naphthalen-10-yl)ethyl)pyrazin-2-amine] are 0.0262 µM, 0.0112 µM, 0.0747 µM and 0.0193 µM.
Regarding `Cc1nc(N)c(Cl)c(-c2nc3c4c(nc(OC[C@@]56CCCN5C[C@H](F)C6)nc4c2F)N([C@H](C)c2cccnc2N)CCO3)c1C(F)(F)F` (single isomer, unassigned) [Example 601b], the IC50 worked out at 0.00316 µM in test [1] and 0.00076 µM in test [2].
Take `Cc1c(F)c(N)c(F)c(-c2nc3c4c(nc(OC[C@@H]5CCCN5C)nc4c2F)N([C@H](C)c2cccnc2N)CCO3)c1C(F)(F)F` [Example 624, 3-((1R)-1-(5-(3-amino-2,4-difluoro-5-methyl-6-(trifluoromethyl)phenyl)-4-fluoro-2-(((S)-1-methylpyrrolidin-2-yl)methoxy)-8,9-dihydro-10H-7-oxa-1,3,6,10-tetraazacyclohepta[de]naphthalen-10-yl)ethyl)pyridin-2-amine]: the IC50 worked out at 0.0115 µM in the test with SW620 cells, 0.363 µM in the test with H1975 cells, 0.0705 µM with HPAC cells and 0.00556 µM with SW620 PERK.
As to `Cc1cc(N)c(F)c(-c2nc3c4c(nc(OC[C@@]56CCCN5C[C@H](F)C6)nc4c2F)N([C@H](C)c2nccnc2N)CCO3)c1C(F)(F)F` [Example 23, 3-((1R)-1-(5-(3-amino-2-fluoro-5-methyl-6-(trifluoromethyl)phenyl)-4-fluoro-2-(((2R,7aS)-2-fluorotetrahydro-1H-pyrrolizin-7a(5H)-yl)methoxy)-8,9-dihydro-10H-7-oxa-1,3,6,10-tetraazacyclohepta[de]naphthalen-10-yl)ethyl)pyrazin-2-amine], the IC50 in the test with SW620 cells turned out to be 0.0316 µM; in the test on H1975 cells, 0.0325 µM; in the test with HPAC cells, 0.092 µM; with SW620 PERK it was 0.00733 µM.
As for `C#Cc1cccc2cc(O)cc(-c3nc4c5c(nc(OC[C@@]67CCCN6C[C@H](F)C7)nc5c3F)N([C@H](C)c3nccnc3N)CCO4)c12` [Example 11, 4-(10-((R)-1-(3-aminopyrazin-2-yl)ethyl)-4-fluoro-2-(((2R,7aS)-2-fluorotetrahydro-1H-pyrrolizin-7a(5H)-yl)methoxy)-9,10-dihydro-8H-7-oxa-1,3,6,10-tetraazacyclohepta[de]naphthalen-5-yl)-5-ethynyinaphthalen-2-ol], the IC50 worked out at 0.00532 µM in the test on SW620 cells, 0.00259 µM with H1975 cells, 0.173 µM in the test with HPAC cells and 0.0019 µM in the test with SW620 PERK.
Turning to `Cc1c(F)c(N)cc(-c2nc3c4c(nc(OC[C@@H]5CC[C@H]6COCCN65)nc4c2F)N([C@H](C)c2nccnc2N)CCO3)c1C(F)(F)F` [Example 10, 3-((R)-1-(5-(5-amino-4-fluoro-3-methyl-2-(trifluoromethyl)phenyl)-4-fluoro-2-(((6S,8aS)-hexahydro-1H-pyrrolo[2,1-c][1,4]oxazin-6-yl)methoxy)-8,9-dihydro-10H-7-oxa-1,3,6,10-tetraazacyclohepta[de]naphthalen-10-yl)ethyl)pyrazin-2-amine], the IC50 in the test with SW620 cells was 0.114 µM; in the test on H1975 cells, 0.0534 µM; in the test with HPAC cells, 0.439 µM; in the test on SW620 PERK it was 0.0299 µM.
As to `Cc1c(F)c(N)c(F)c(-c2nc3c4c(nc(OC[C@@]56CCCN5C[C@H](F)C6)nc4c2F)N([C@H](C)c2nccnc2N)CCO3)c1C(F)(F)F` [Example 13, 3-((1R)-1-(5-(3-amino-2,4-difluoro-5-methyl-6-(trifluoromethyl)phenyl)-4-fluoro-2-(((2R,7aS)-2-fluorotetrahydro-1H-pyrrolizin-7a(5H)-yl)methoxy)-8,9-dihydro-10H-7-oxa-1,3,6,10-tetraazacyclohepta[de]naphthalen-10-yl)ethyl)pyrazin-2-amine], the figures for the IC50 with SW620 cells and with H1975 cells were 0.0267 µM and 0.0734 µM, respectively.
For `Cc1c(F)c(N)cc(-c2nc3c4c(nc(OC[C@@]56CCCN5C[C@H](F)C6)nc4c2Cl)N([C@H](C)c2cccnc2N)CCO3)c1C(F)(F)F` [Example 32, 3-((R)-1-(5-(5-amino-4-fluoro-3-methyl-2-(trifluoromethyl)phenyl)-4-chloro-2-(((2R,7aS)-2-fluorotetrahydro-1H-pyrrolizin-7a(5H)-yl)methoxy)-8,9-dihydro-10H-7-oxa-1,3,6,10-tetraazacyclohepta[de]naphthalen-10-yl)ethyl)pyridin-2-amine], the IC50 in the test on SW620 cells amounted to 0.00225 µM; in the test on H1975 cells, 0.00712 µM; in the test on HPAC cells it was 0.0187 µM; in the test on SW620 PERK, 0.00245 µM.
